The compounds below were run against T1, human TGR5 (Homo sapiens, UniProt Q8TDU6) (assay: cAMP production assay in HEK293 cells stably expressing TGR5 (LANCE TR-FRET)). Conditions: 30 minutes stimulation, read-out: cAMP Production in 293-TGR5 Cells EC50.
T1 construct: expressed in transfected cells
T1 sequence (Q8TDU6 1-330): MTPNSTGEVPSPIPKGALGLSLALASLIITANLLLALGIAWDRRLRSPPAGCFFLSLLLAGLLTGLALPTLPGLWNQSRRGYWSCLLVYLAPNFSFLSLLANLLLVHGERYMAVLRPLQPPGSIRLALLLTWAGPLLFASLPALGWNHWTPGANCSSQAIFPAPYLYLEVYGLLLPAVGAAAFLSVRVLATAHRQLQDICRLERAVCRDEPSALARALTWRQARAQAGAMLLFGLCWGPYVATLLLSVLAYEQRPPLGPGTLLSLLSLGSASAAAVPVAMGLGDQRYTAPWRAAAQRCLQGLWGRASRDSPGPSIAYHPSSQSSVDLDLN
Format: cell-based
How it was run: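 HEK293 cells stably transfected with human TGR5, incubated overnight in DMEM with 0.1% FBS, then given IBMX (1 mM final) and stimulated with compounds for 30 minutes. cAMP measured by LANCE TR-FRET after 1-7 h detection at room temperature. EC50 values reported as ≦10 μM (+) or >10 μM (−).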

Row | Compound | EC50 [µM]
1 | O=c1c2ccccc2nc(CCc2ccccc2)n1NCc1ccc(F)cc1F [Example 16, 3-(2,4-difluorobenzylamino)-2-phenethylquinazolin-4(3H)-one] | ≤ 10
2 | O=c1c2ccc(F)cc2nc(-c2ccc(F)cc2)n1NCc1ccc(Cl)cc1 [Example 108, 3-(4-chlorobenzylamino)-7-fluoro-2-(4-fluorophenyl)quinazolin-4(3H)-one] | ≤ 10
3 | O=c1c2ccccc2nc(-c2cccc(F)c2)n1NCc1ccc(Br)cc1 [Example 105, 3-(4-bromobenzylamino)-2-(3-fluorophenyl)quinazolin-4(3H)-one] | ≤ 10
4 | O=c1c2ccccc2nc(-c2ccc(F)cc2)n1NCc1ccc2ccccc2c1 [Example 38, 2-(4-fluorophenyl)-3-(naphthalen-2-ylmethylamino)quinazolin-4(3H)-one] | ≤ 10

Now from value to compound:

Row | EC50 [µM] | Compound
5 | ≤ 10 | COc1cccc2c(=O)n(NCc3ccc(Cl)cc3)c(-c3ccc(F)cc3)nc12 [Example 77, 3-(4-Chloro-benzylamino)-2-(4-fluoro-phenyl)-8-methoxy-3H-quinazolin-4-one]
6 | ≤ 10 | O=c1c2ccccc2nc(-c2ccc3c(c2)OCO3)n1NCc1ccc(Br)cc1 [Example 63, 2-(benzo[d][1,3]dioxol-5-yl)-3-(4-bromobenzylamino)quinazolin-4(3H)-one]
7 | ≤ 10 | CCN(Cc1ccc(Br)cc1)n1c(-c2ccc(F)cc2)nc2ccccc2c1=O [Example 93, 3-((4-bromobenzyl)(ethyl)amino)-2-(4-fluorophenyl)quinazolin-4(3H)-one]
